These results are taken from patent US8410117B2, “Imidazopyrimidine derivatives” (Hoffmann-La Roche Inc., priority 2010, dated 2013).

Molecules are shown by their SMILES.

For this assay, the target named is T1, human PDE10A (Homo sapiens, UniProt Q9Y233).
T1 construct: The human PDE10A full length assay; purchased Enzo Life Science, Lausen, Switzerland SE-534
T1 sequence (Q9Y233 1-779 isoform Q9Y233-1): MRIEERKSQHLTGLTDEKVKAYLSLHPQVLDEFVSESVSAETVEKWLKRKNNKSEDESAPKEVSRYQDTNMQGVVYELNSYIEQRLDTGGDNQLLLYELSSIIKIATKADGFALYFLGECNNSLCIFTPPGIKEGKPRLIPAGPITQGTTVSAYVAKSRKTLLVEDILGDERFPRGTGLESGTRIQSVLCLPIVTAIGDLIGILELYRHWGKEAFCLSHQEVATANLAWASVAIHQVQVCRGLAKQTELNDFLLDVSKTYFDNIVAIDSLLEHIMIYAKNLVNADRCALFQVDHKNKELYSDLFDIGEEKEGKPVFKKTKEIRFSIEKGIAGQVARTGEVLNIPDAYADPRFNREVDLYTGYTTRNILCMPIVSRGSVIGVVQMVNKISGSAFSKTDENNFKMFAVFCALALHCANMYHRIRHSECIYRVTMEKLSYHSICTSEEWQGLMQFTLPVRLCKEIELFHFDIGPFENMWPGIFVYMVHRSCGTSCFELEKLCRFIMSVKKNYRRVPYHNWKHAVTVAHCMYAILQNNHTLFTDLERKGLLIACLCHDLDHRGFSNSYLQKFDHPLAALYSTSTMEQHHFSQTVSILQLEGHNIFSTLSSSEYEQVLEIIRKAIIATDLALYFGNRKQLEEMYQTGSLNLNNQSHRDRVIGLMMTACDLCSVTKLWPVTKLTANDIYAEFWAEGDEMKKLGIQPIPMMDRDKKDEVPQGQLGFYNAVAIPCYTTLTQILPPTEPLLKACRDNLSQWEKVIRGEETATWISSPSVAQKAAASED
Nature of the assay: human PDE10A full length Scintillation Proximity Assay (SPA). The assay is classed as biochemical. To be noted: 50 nM cGMP and 50 nM [3H]-cGMP, 20 minutes at room temperature; read-out: PDE10A inhibition IC50. The procedure, abridged:
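Full-length enzyme at 3.75 ng/well in 20 mM HEPES pH 7.5, 10 mM MgCl2, 0.05 mg/ml BSA, with 50 nM cGMP plus 50 nM [3H]-cGMP substrate, 20 min at room temperature. Stopped with YSi-SPA beads in zinc sulphate and counted by scintillation. IC50 from inhibitor concentration series; no-enzyme wells define background.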
(Scintillation proximity formats need no separation of bound from free tracer.)
As a reminder, the IC50 is the concentration that inhibits the measured activity by half. On to `Cn1ncc(C(=O)N2CCC2)c1C(=O)Nc1ccn2cc(-c3cccc(OCCF)c3)nc2n1` [Example 103, 4-(Azetidine-1-carbonyl)-2-methyl-2H-pyrazole-3-carboxylic acid {2-[3-(2-fluoro-ethoxy)-phenyl]imidazo[1,2-a]pyrimidin-7-yl}-amide], for which the half-inhibitory concentration (IC50) amounted to 0.0287 µM.
As to `CN(CCF)C(=O)c1cnn(C)c1C(=O)Nc1ccn2cc(-c3cccc(F)c3)nc2n1` [Example 104, 2-Methyl-2H-pyrazole-3,4-dicarboxylic acid 4-[(2-fluoro-ethyl)-methyl-amide]3-{[2-(3-fluoro-phenyl)-imidazo[1,2-a]pyrimidin-7-yl]-amide}], the IC50 was determined as 0.0296 µM.
As for `CC(=O)Oc1cccc(-c2cn3ccc(NC(=O)c4c(C(=O)N5CCC5)cnn4C)nc3n2)c1` [Example 105, 3-(7-(4-(azetidine-1-carbonyl)-1-methyl-1H-pyrazole-5-carboxamido)imidazo[1,2-a]pyrimidin-2-yl)phenyl acetate], the figure is 0.0366 µM.
On to `CN(CCOCCF)C(=O)c1cnn(C)c1C(=O)Nc1ccn2cc(-c3ccccc3)nc2n1` [Example 106, 2-Methyl-2H-pyrazole-3,4-dicarboxylic acid 4-{[2-(2-fluoro-ethoxy)-ethyl]-methyl-amide}3-[(2-phenyl-imidazo[1,2-a]pyrimidin-7-yl)-amide]], for which the IC50 worked out at 0.0433 µM.
Take `COCCN(C)C(=O)c1cnn(C)c1C(=O)Nc1ccn2cc(-c3cccc(F)c3)nc2n1` [Example 107, 2-Methyl-2H-pyrazole-3,4-dicarboxylic acid 3-{[2-(3-fluoro-phenyl)-imidazo[1,2-a]pyrimidin-7-yl]-amide}4-[(2-methoxy-ethyl)-methyl-amide]]: the 50% inhibitory concentration (IC50) was determined as 0.0519 µM.
For `CN(CCF)C(=O)c1cnn(C)c1C(=O)Nc1ccn2cc(-c3cccc(OCF)c3)nc2n1` [Example 108, 2-Methyl-2H-pyrazole-3,4-dicarboxylic acid 4-[(2-fluoro-ethyl)-methyl-amide]3-{[2-(3-fluoromethoxy-phenyl)-imidazo[1,2-a]pyrimidin-7-yl]-amide}] the value was 0.0817 µM.
As for `CN(CCOCCF)C(=O)c1cnn(C)c1C(=O)Nc1ccn2cc(-c3cccc(OCCF)c3)nc2n1` [Example 109, 2-Methyl-2H-pyrazole-3,4-dicarboxylic acid 4-{[2-(2-fluoro-ethoxy)-ethyl]-methyl-amide}3-({2-[3-(2-fluoro-ethoxy)-phenyl]-imidazo[1,2-a]pyrimidin-7-yl}-amide)], the figure is 0.089 µM; as for `COc1cccc(-c2cn3ccc(NC(=O)c4c(C(=O)N(C)CCOCCF)cnn4C)nc3n2)c1` [Example 110], 0.222 µM.
As for `COc1cccc(-c2cn3ccc(NC(=O)c4c(C(=O)N(C)CCF)cnn4C)nc3n2)c1` [Example 111, 2-Methyl-2H-pyrazole-3,4-dicarboxylic acid 4-[(2-fluoro-ethyl)-methyl-amide]3-{[2-(3-methoxy-phenyl)-imidazo[1,2-a]pyrimidin-7-yl]amide}], the 50% inhibitory concentration (IC50) is 0.364 µM.
In the case of `Cn1ncc(C(=O)NCc2cocn2)c1C(=O)Nc1ccn2cc(-c3ccccc3)nc2n1` [Example 112, 1-methyl-N4-(oxazol-4-ylmethyl)-N5-(2-phenylimidazo[1,2-a]pyrimidin-7-yl)-1H-pyrazole-4,5-dicarboxamide], the IC50 was determined as 0.0013 µM.
For `Cn1ncc(C(=O)NCc2ccn[nH]2)c1C(=O)Nc1ccn2cc(-c3ccccc3)nc2n1` [Example 113, N4-((1H-pyrazol-5-yl)methyl)-1-methyl-N5-(2-phenylimidazo[1,2-a]pyrimidin-7-yl)-1H-pyrazole-4,5-dicarboxamide] the value was 0.0026 µM.
As to `Cn1ncc(C(=O)N2CC=CC2)c1C(=O)Nc1ccn2cc(-c3ccccc3)nc2n1` [Example 114, 4-(2,5-dihydro-1H-pyrrole-1-carbonyl)-1-methyl-N-(2-phenylimidazo[1,2-a]pyrimidin-7-yl)-1H-pyrazole-5-carboxamide], the IC50 amounted to 0.0028 µM.
For `Cn1ncc(C(=O)N2CC(F)C2)c1C(=O)Nc1ccn2cc(-c3ccccc3)nc2n1` [Example 115, 4-(3-fluoroazetidine-1-carbonyl)-1-methyl-N-(2-phenylimidazo[1,2-a]pyrimidin-7-yl)-1H-pyrazole-5-carboxamide], the IC50 was found to be 0.0051 µM.
As for `CC1CCCN1C(=O)c1cnn(C)c1C(=O)Nc1ccn2cc(-c3ccccc3)nc2n1` (stereo not shown) [Example 116, 1-methyl-4-(2-methylpyrrolidine-1-carbonyl)-N-(2-phenylimidazo[1,2-a]pyrimidin-7-yl)-1H-pyrazole-5-carboxamide], the figure is 0.0051 µM; as for `Cn1ncc(C(=O)N2CCC2)c1C(=O)Nc1ccn2cc(-c3cccc(Br)c3)nc2n1` [Example 117, 4-(azetidine-1-carbonyl)-N-(2-(3-bromophenyl)imidazo[1,2-a]pyrimidin-7-yl)-1-methyl-1H-pyrazole-5-carboxamide], 0.0062 µM.
Regarding `Cn1ncc(C(=O)NCc2ccccn2)c1C(=O)Nc1ccn2cc(-c3ccccc3)nc2n1` [Example 118, 1-methyl-N5-(2-phenylimidazo[1,2-a]pyrimidin-7-yl)-N4-(pyridin-2-ylmethyl)-1H-pyrazole-4,5-dicarboxamide], the IC50 stood at 0.0119 µM.
Take `CN(CC#N)C(=O)c1cnn(C)c1C(=O)Nc1ccn2cc(-c3ccccc3)nc2n1` [Example 119, N4-(cyanomethyl)-N4,1-dimethyl-N5-(2-phenylimidazo[1,2-a]pyrimidin-7-yl)-1H-pyrazole-4,5-dicarboxamide]: the IC50 turned out to be 0.0133 µM.
For `C=CCn1ncc(C(=O)N2CCC2)c1C(=O)Nc1ccn2cc(-c3ccccc3)nc2n1` [Example 120, 1-allyl-4-(azetidine-1-carbonyl)-N-(2-phenylimidazo[1,2-a]pyrimidin-7-yl)-1H-pyrazole-5-carboxamide] the value was 0.0137 µM; for `Cc1cc(CNC(=O)c2cnn(C)c2C(=O)Nc2ccn3cc(-c4ccccc4)nc3n2)n[nH]1` [Example 121, 1-methyl-N-4-((5-methyl-1H-pyrazol-3-yl)methyl)-N5-(2-phenylimidazo[1,2-a]pyrimidin-7-yl)-1H-pyrazole-4,5-dicarboxamide], 0.0167 µM; for `Cn1ncc(C(=O)NCc2ncco2)c1C(=O)Nc1ccn2cc(-c3ccccc3)nc2n1` [Example 122, 1-methyl-N4-(oxazol-2-ylmethyl)-N5-(2-phenylimidazo[1,2-a]pyrimidin-7-yl)-1H-pyrazole-4,5-dicarboxamide], 0.0169 µM.
On to `Cn1ncc(C(=O)NCCF)c1C(=O)Nc1ccn2cc(-c3ccccc3)nc2n1` [Example 123, N4-(2-fluoroethyl)-1-methyl-N5-(2-phenylimidazo[1,2-a]pyrimidin-7-yl)-1H-pyrazole-4,5-dicarboxamide], for which the concentration for half-maximal inhibition (IC50) is 0.0173 µM.
For `Cc1cnc(CNC(=O)c2cnn(C)c2C(=O)Nc2ccn3cc(-c4ccccc4)nc3n2)s1` [Example 124, 1-methyl-N4-((5-methylthiazol-2-yl)methyl)-N5-(2-phenylimidazo[1,2-a]pyrimidin-7-yl)-1H-pyrazole-4,5-dicarboxamide] the value was 0.0177 µM; for `Cn1ncc(C(=O)NCC#N)c1C(=O)Nc1ccn2cc(-c3ccccc3)nc2n1` [Example 125, N4-(cyanomethyl)-1-methyl-N5-(2-phenylimidazo[1,2-a]pyrimidin-7-yl)-1H-pyrazole-4,5-dicarboxamide], 0.0187 µM; for `Cn1ncc(C(=O)NCCC(F)(F)F)c1C(=O)Nc1ccn2cc(-c3ccccc3)nc2n1` [Example 126, 1-methyl-N5-(2-phenylimidazo[1,2-a]pyrimidin-7-yl)-N4-(3,3,3-trifluoropropyl)-1H-pyrazole-4,5-dicarboxamide], 0.0247 µM.
As for `Cc1cc(CNC(=O)c2cnn(C)c2C(=O)Nc2ccn3cc(-c4ccccc4)nc3n2)on1` [Example 127, 1-methyl-N4-((3-methylisoxazol-5-yl)methyl)-N5-(2-phenylimidazo[1,2-a]pyrimidin-7-yl)-1H-pyrazole-4,5-dicarboxamide], the IC50 worked out at 0.0259 µM.
As for `Cn1ncc(C(=O)N2CCC2)c1C(=O)Nc1ccn2cc(-c3cccc(-c4ccccc4)c3)nc2n1` [Example 128, 4-(azetidine-1-carbonyl)-N-(2-(biphenyl-3-yl)imidazo[1,2-a]pyrimidin-7-yl)-1-methyl-1H-pyrazole-5-carboxamide], the IC50 came to 0.026 µM.
For `Cn1ncc(C(=O)NCC(F)F)c1C(=O)Nc1ccn2cc(-c3ccccc3)nc2n1` [Example 129, N4-(2,2-difluoroethyl)-1-methyl-N5-(2-phenylimidazo[1,2-a]pyrimidin-7-yl)-1H-pyrazole-4,5-dicarboxamide] the value was 0.0332 µM; for `Cn1ncc(C(=O)NCC(F)(F)F)c1C(=O)Nc1ccn2cc(-c3ccccc3)nc2n1` [Example 130, 1-methyl-N5-(2-phenylimidazo[1,2-a]pyrimidin-7-yl)-N4-(2,2,2-trifluoroethyl)-1H-pyrazole-4,5-dicarboxamide], 0.0349 µM; for `Cn1ncc(C(=O)NCc2ccno2)c1C(=O)Nc1ccn2cc(-c3ccccc3)nc2n1` [Example 131, N4-(isoxazol-5-ylmethyl)-1-methyl-N5-(2-phenylimidazo[1,2-a]pyrimidin-7-yl)-1H-pyrazole-4,5-dicarboxamide], 0.0351 µM.
For `Cn1ncc(C(=O)N2CC3(COC3)C2)c1C(=O)Nc1ccn2cc(-c3ccccc3)nc2n1` [Example 132, 1-methyl-N-(2-phenylimidazo[1,2-a]pyrimidin-7-yl)-4-(2-oxa-6-azaspiro[3.3]heptane-6-carbonyl)-1H-pyrazole-5-carboxamide] the value was 0.0486 µM.
For `Cn1ncc(C(=O)Nc2ccccc2)c1C(=O)Nc1ccn2cc(-c3ccccc3)nc2n1` [Example 133, 1-methyl-N4-phenyl-N5-(2-phenylimidazo[1,2-a]pyrimidin-7-yl)-1H-pyrazole-4,5-dicarboxamide], the IC50 was 0.0522 µM.
